Assay results reported in patent publication US20250288682A1, “DEVELOPMENT OF NANO-ENCAPSULATED FATTY-ACYL CONJUGATED COLCHICINE” (priority 2022, published 2025).
Like-named read-outs stand apart in the source and are kept apart here.

Legend:
[1] = for behenic acid conjugated colchicine in plasma: rats, 1 mg/kg
Description: The route of administration and the PK profile for liposomes colchicine were evaluated. The scaled-up formulation of liposomes colchicine, 15 mL, ghost formulation, non-liposomal behenic acid-conjugated colchicine and free colchicine were evaluated to determine the PK profile of liposomes colchicine, as a function of route of administration, intra-peritoneal injection and oral gavage. This preliminary in vivo study is designed to estimate PK parameters of liposomes colchicine and mode of administration of the liposomes. This study was performed using 10 rats divided into 4 groups as specified in FIG. 14. Rats received colchicine or liposomes-colchicine at 1 mg/kg by intra-peritoneal injection or oral gavage. Two and 24 hours after administration, blood was collected for a quantification of plasmatic colchicine and liposomes by liquid chromatography-mass spectrometry (LC-MS/MS). […] All plasma samples were analyzed for colchicine and colchicine-behenic acid conjugate.
LC/MS samples were prepared as per standard plasma extraction protocol.

[2] = cited from earlier work
[3] = tested on: microtubules, HUVEC endothelial cells; settings: 100 nM, 24 hours
Description: (§1) The efficiency of colchicine to bind microtubules and alter their polymerization was evaluated on HUVEC endothelial cells (FIG. 12) and J774 macrophages (FIG. 13). Cells were plated, respectively, at 5000 and 10000 cells/cm2 three days before colchicine stimulation. […] After 24 hours of stimulation, cells were fixed with paraformaldehyde 4% for 10 minutes. Blocking was performed with 10% normal goat serum with 0.2% Triton X-100. The immunocytometry staining used an α/β-tubulin antibody (#2148, Cell Signaling, 1/100, overnight, +4° C.) followed with a goat anti-rabbit antibody Alexa 555 (#A21429, Invitrogen, 1/200, 1 hour, room temperature). DAPI was used for nuclear staining. Pictures at 20× magnification were taken using AxioVision software SE64 4.9.1 (Zeiss).

HUVEC endothelial cells = settings: 24 hour stimulation, 0.1 to 10000 nM
Description: Cell toxicity was tested on RAW264.7 macrophages and HUVEC endothelial cells. All cells were plated on 96-wells plate (2000 and 8000 cells per well, respectively) and exposed to colchicine or controls three days after (FIGS. 11A and 11B). Cells were exposed to commercialized colchicine (#9754, Sigma-Aldrich), behenic-acid colchicine or liposomal nanoparticles-colchicine (liposomes-colchicine, generated by the nanoSTAR Institute) as well as their respective controls (free media, ethanol/DMSO, ghost liposomes) from 0.1 to 10000 nM. After 24 hours of stimulation, media was removed and replaced with MTT solution (M2128, Sigma-Aldrich) at 0.375 mg/mL for 4 hours at 37° C. Viable cells produced dark blue formazan products. These products were dissolved in an isopropanol/Triton X-100, 10%/HCl solution, and read at 575 nm for absorbance density values to determine the cell viability. The percentage of the viable cells was calculated using the following formula: (%)=[100×(colchicine compound absorbance)/(own control absorbance)].

[4] = tested on: microtubules, J774 macrophages; settings: 100 nM, 24 hours
Description: as §1

tubulin = settings: cited from earlier work
[5] = rats treated with behenic acid conjugated colchicine

CCCCCCCCCCCCCCCCCCCCCC(=O)OCC(=O)N[C@H]1CCc2cc(OC)c(OC)c(OC)c2-c2ccc(OC)c(=O)cc21 [AI-3-25]
colchifoline in plasma [1, 5]: found
free colchicine as a metabolite in plasma [1, 5]: not found
behenic acid conjugated colchicine in plasma ([1]; IP, 2 hours): presence
behenic acid conjugated colchicine in plasma ([1]; oral gavage): diminished levels

COc1cc2c(c(OC)c1OC)-c1ccc(OC)c(=O)cc1[C@@H](NC(C)=O)CC2 [Colchicine, colchicine]
log P [2]: about 1.5
Biopharmaceutical Classification System class ([2]; high solubility and low permeability): class III
microtubule polymerization, cell division and cell shape [3]: significantly dysregulated microtubule polymerization, cell division and cell shape
cell viability (MTT) (HUVEC endothelial cells): decreased cell viability
microtubule polymerization, cell division and cell shape [4]: significantly dysregulated microtubule polymerization, cell division and cell shape

COc1cc2c(c(OC)c1OC)-c1ccc(OC)c(=O)cc1[C@@H](NC(=O)CO)CC2 [colchifoline, N-(2-hydroxyacetyl) colchicine]
tubulin binding compared with colchicine (tubulin): stronger
